A value given as a limit tells only on which side of the number the result lay.

Chain of human GLP-1R (P43220 24-463): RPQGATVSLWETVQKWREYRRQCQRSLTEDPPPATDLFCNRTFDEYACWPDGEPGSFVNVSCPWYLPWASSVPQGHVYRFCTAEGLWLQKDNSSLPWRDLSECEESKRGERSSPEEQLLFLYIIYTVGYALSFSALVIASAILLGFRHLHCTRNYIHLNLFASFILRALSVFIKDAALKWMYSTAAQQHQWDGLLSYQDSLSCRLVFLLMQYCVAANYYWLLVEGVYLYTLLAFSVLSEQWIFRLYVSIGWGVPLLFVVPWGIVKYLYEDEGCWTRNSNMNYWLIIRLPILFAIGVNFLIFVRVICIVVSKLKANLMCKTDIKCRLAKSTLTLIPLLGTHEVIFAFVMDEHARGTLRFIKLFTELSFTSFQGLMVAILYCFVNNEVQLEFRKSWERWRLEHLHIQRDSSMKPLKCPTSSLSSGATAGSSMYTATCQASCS

One test deals with human GLP-1R (Homo sapiens, UniProt P43220). The test can be described thus: GLP-1R Cell Assay 1: cAMP Hunter CHO-K1 GLP1R Gs cell line, HitHunter cAMP assay. It counts as cell-based. The note with it: Table 2; cAMP Hunter CHO-K1 GLP1R Gs cells; percent activity normalized to Exendin-4. The method in brief:
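Luminescent enzyme-fragment-complementation immunoassay quantified cellular cAMP after 30-60 min compound exposure at 37 °C in HBSS/10 mM HEPES. Data from duplicate runs were normalised to Exendin-4 and fitted nonlinearly for EC50.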
(In general: cAMP levels reflect the balance of adenylyl cyclase and phosphodiesterase activity.)
For orientation: EC50 means the midpoint of the concentration-response curve. A low value points to a more potent agent. As to `O=C(O)c1ccc2nc(CN3CC[C@]4(c5cccc(OCc6nc7ccccc7s6)n5)C[C@@H]4C3)n(C[C@@H]3CCO3)c2c1` (single isomer, unassigned) [Compound 104-P2], the response was half-maximal at 8.12 nM (EC50).
For `NC(=O)c1ccc2c(c1)CCN(c1cccc(N3CCN(Cc4nc5ccc(C(=O)O)cc5n4C[C@@H]4CCO4)CC3)n1)C2` [Compound 59, (S)-2-((4-(6-(6-carbamoyl-3,4-dihydroisoquinolin-2(1H)-yl)pyridin-2-yl)piperazin-1-yl)methyl)-1-(oxetan-2-ylmethyl)-1H-benzo[d]imidazole-6-carboxylic acid], the EC50 was 228 nM.
Turning to `O=C(O)c1ccc2nc(CN3CCN(c4cccc(OCC5CCCCC5)n4)CC3)n(C[C@@H]3CCO3)c2c1` [Compound 1, (S)-2-((4-(6-(cyclohexylmethoxy)pyridin-2-yl)piperazin-1-yl)methyl)-1-(oxetan-2-ylmethyl)-1H-benzo[d]imidazole-6-carboxylic acid], the EC50 was determined as 42.5 nM.
`N#Cc1cccc2c1CCN(c1cccc(N3CCN(Cc4nc5ccc(C(=O)O)cc5n4C[C@@H]4CCO4)CC3)n1)C2` [Compound 120, (S)-2-((4-(6-(5-cyano-3,4-dihydroisoquinolin-2(1H)-yl)pyridin-2-yl)piperazin-1-yl)methyl)-1-(oxetan-2-ylmethyl)-1H-benzo[d]imidazole-6-carboxylic acid] yielded an EC50 of 43.5 nM.
`C[C@]1(c2cccc(OCc3ccc(C#N)cc3F)n2)CCN(Cc2nc3ccc(C(=O)O)cc3n2C[C@@H]2CCO2)C1` (single isomer, unassigned) [Compound 20-P2] displayed an EC50 of 166 nM.
Still for that read-out and setting: in the case of `O=C(O)c1ccc2nc(CN3CCN(c4cccc(NCc5ccccc5)n4)CC3)n(C[C@@H]3CCO3)c2c1` [Compound 55, (S)-2-((4-(6-(benzylamino)pyridin-2-yl)piperazin-1-yl)methyl)-1-(oxetan-2-ylmethyl)-1H-benzo[d]imidazole-6-carboxylic acid] it was 42.3 nM.
Molecule `C[C@@]1(c2cccc(OCc3ccc(C#N)cc3F)n2)CCN(Cc2nc3ccc(C(=O)O)cc3n2C[C@@H]2CCO2)C1` (single isomer, unassigned) [Compound 20-P1] showed an EC50 greater than 500 nM.
`CN(Cc1ccc(C(N)=O)cc1)c1cccc(N2CCN(Cc3nc4ccc(C(=O)O)cc4n3C[C@@H]3CCO3)CC2)n1` [Compound 64, (S)-2-((4-(6-((4-carbamoylbenzyl)(methyl)amino)pyridin-2-yl)piperazin-1-yl)methyl)-1-(oxetan-2-ylmethyl)-1H-benzo[d]imidazole-6-carboxylic acid] gave an EC50 greater than 500 nM.
`C[C@H]1COC[C@H](N2CCC(c3cccc(OCc4ccc(C#N)cc4F)n3)CC2)c2nc3ccc(C(=O)O)cc3n21` (single isomer, unassigned) [Compound 8-P1]: the EC50 is greater than 500 nM.
For `C[C@H](Oc1cccc(N2CCN(Cc3nc4ccc(C(=O)O)cc4n3C[C@@H]3CCO3)CC2)n1)c1nc2ccccc2s1` [Compound 115, 2-((4-(6-((S)-1-(benzo[d]thiazol-2-yl)ethoxy)pyridin-2-yl)piperazin-1-yl)methyl)-1-(((S)-oxetan-2-yl)methyl)-1H-benzo[d]imidazole-6-carboxylic acid], the midpoint of the response, the EC50, lay at 8 nM.
For `O=C(O)c1ccc2nc(CN3CCN(c4cccc(OCC5CC(F)(F)C5)n4)CC3)n(C[C@@H]3CCO3)c2c1` [Compound 50, (S)-2-((4-(6-((3,3-difluorocyclobutyl)methoxy)pyridin-2-yl)piperazin-1-yl)methyl)-1-(oxetan-2-ylmethyl)-1H-benzo[d]imidazole-6-carboxylic acid], the EC50 amounted to 202 nM.
For the molecule `Cc1cn(C2CCN(Cc3nc4ccc(C(=O)O)cc4n3C[C@@H]3CCO3)CC2)nc1OCc1ccc(C#N)cc1F` [Compound 114], the EC50 worked out at 5.11 nM.
Same read-out and setting: in the case of `N#CC1(COc2cccc(N3CCN(Cc4nc5ccc(C(=O)O)cc5n4C[C@@H]4CCO4)CC3)n2)COC1` [Compound 61, (S)-2-((4-(6-((3-cyanooxetan-3-yl)methoxy)pyridin-2-yl)piperazin-1-yl)methyl)-1-(oxetan-2-ylmethyl)-1H-benzo[d]imidazole-6-carboxylic acid] it was greater than 500 nM.
Molecule `N#CC1(COc2cccc(N3CCN(Cc4nc5ccc(C(=O)O)cc5n4C[C@@H]4CCO4)CC3)n2)CCOCC1` [Compound 41, (S)-2-((4-(6-((4-cyanotetrahydro-2H-pyran-4-yl)methoxy)pyridin-2-yl)piperazin-1-yl)methyl)-1-(oxetan-2-ylmethyl)-1H-benzo[d]imidazole-6-carboxylic acid] yielded an EC50 greater than 500 nM.
The molecule `O=C(O)c1ccc2nc(CN3CCN(c4cccc(OCc5nc6ccccc6o5)n4)CC3)n(C[C@@H]3CCO3)c2c1` [Compound 67, (S)-2-((4-(6-(benzo[d]oxazol-2-ylmethoxy)pyridin-2-yl)piperazin-1-yl)methyl)-1-(oxetan-2-ylmethyl)-1H-benzo[d]imidazole-6-carboxylic acid] showed an EC50 of 0.849 nM.
Molecule `CN1CCC(COc2cccc(N3CCN(Cc4nc5ccc(C(=O)O)cc5n4C[C@@H]4CCO4)CC3)n2)CC1` [Compound 37, (S)-2-((4-(6-((1-methylpiperidin-4-yl)methoxy)pyridin-2-yl)piperazin-1-yl)methyl)-1-(oxetan-2-ylmethyl)-1H-benzo[d]imidazole-6-carboxylic acid] yielded an EC50 greater than 500 nM.
As for `O=C(O)c1ccc2nc(CN3CCN(c4cccc(OCc5nc6cccnc6s5)n4)CC3)n(C[C@@H]3CCO3)c2c1` [Compound 122, (S)-1-(oxetan-2-ylmethyl)-2-((4-(6-(thiazolo[5,4-b]pyridin-2-ylmethoxy)pyridin-2-yl)piperazin-1-yl)methyl)-1H-benzo[d]imidazole-6-carboxylic acid], the EC50 was 2.24 nM. This lies in the single-digit nanomolar range.
In turn, `O=C(O)c1ccc2nc(CN3CC[C@]4(c5cccc(OCc6ccc(Cl)cc6Cl)n5)C[C@@H]4C3)n(C[C@@H]3CCO3)c2c1` (single isomer, unassigned) [Compound 126-P2] registered a concentration for a half-maximal effect (EC50) of 0.373 nM. Compared with the last molecule, the EC50 is about 6-fold lower.
On the same count and under the same terms, under `NC(=O)c1cnc(COc2cccc(N3CCN(Cc4nc5ccc(C(=O)O)cc5n4C[C@@H]4CCO4)CC3)n2)nc1` [Compound 81, (S)-2-((4-(6-((5-carbamoylpyrimidin-2-yl)methoxy)pyridin-2-yl)piperazin-1-yl)methyl)-1-(oxetan-2-ylmethyl)-1H-benzo[d]imidazole-6-carboxylic acid] stands 207 nM; under `O=C(O)c1ccc2nc3n(c2c1)CCOC[C@@H]3N1CCC(c2cccc(OCc3ccccc3)n2)CC1` [Compound 94, (R)-5-(4-(6-(benzyloxy)pyridin-2-yl)piperidin-1-yl)-1,2,4,5-tetrahydrobenzo[4,5]imidazo[1,2-d][1,4]oxazepine-9-carboxylic acid], 152 nM.
`O=C(O)c1ccc2nc(CN3CCN(c4cccc(OCc5nc6cccc(F)c6s5)n4)CC3)n(C[C@@H]3CCO3)c2c1` [Compound 123, (S)-2-((4-(6-((7-fluorobenzo[d]thiazol-2-yl)methoxy)pyridin-2-yl)piperazin-1-yl)methyl)-1-(oxetan-2-ylmethyl)-1H-benzo[d]imidazole-6-carboxylic acid] registered an EC50 of 1.07 nM. This EC50 lies about 140-fold lower than the previous one.
Regarding `O=C(O)c1ccc2nc(CN3CCN(c4cccc(OCCC5COC5)n4)CC3)n(C[C@@H]3CCO3)c2c1` [Compound 35, (S)-1-(oxetan-2-ylmethyl)-2-((4-(6-(2-(oxetan-3-yl)ethoxy)pyridin-2-yl)piperazin-1-yl)methyl)-1H-benzo[d]imidazole-6-carboxylic acid], the half-maximal effective concentration (EC50) was greater than 500 nM.

Still in this test, the particulars now being: Table 3; cAMP Hunter CHO-K1 GLP1R Gs cells; percent activity normalized to Exendin-4.
Turning to `O=C(O)c1ccc2nc(CN3CCC(c4cccc5c4CC(=O)N(c4ccccc4)C5)CC3)n(C[C@@H]3CCO3)c2c1` [Compound 152, (S)-1-(oxetan-2-ylmethyl)-2-((4-(3-oxo-2-phenyl-1,2,3,4-tetrahydroisoquinolin-5-yl)piperidin-1-yl)methyl)-1H-benzo[d]imidazole-6-carboxylic acid], the EC50 is greater than 500 nM.
The molecule `CCn1ccnc1Cn1c(CN2CC[C@@]3(c4cccc(N5CCc6cc(C#N)cc(F)c6C5)n4)C[C@H]3C2)nc2ccc(C(=O)O)cc21` [Compound 163-P1, 2-(((1R,6S)-6-(6-(6-cyano-8-flluoro-3,4-dihydroisoquinolin-2(1H)-yl)pyridin-2-yl)-3-azabicyclo[4.1.0]heptan-3-yl)methyl)-1-((1-ethyl-1H-imidazol-2-yl)methyl)-1H-benzo[d]imidazole-6-carboxylic acid] came in with an EC50 of 0.266 nM.
On the same count and under the same terms, in the case of `CCn1cncc1Cn1c(CN2CCC(c3cccc(OCc4nc5ccc(C#N)cc5s4)n3)CC2)nc2ccc(C(=O)O)cc21` [Compound 165, 2-((4-(6-((6-cyanobenzo[d]thiazol-2-yl)methoxy)pyridin-2-yl)piperidni-1-yl)methyl)-1-((1-ethyl-1H-imidazol-5-yl)methyl)-1H-benzo[d]imidazole-6-carboxylic acid] it was 0.0254 nM; in that of `O=C(O)c1ccc2nc(CN3CCN(c4ccc5c(n4)N(Cc4ccccc4)CCC5)CC3)n(C[C@@H]3CCO3)c2c1` [Compound 153, (S)-2-((4-(8-benzyl-5,6,7,8-tetrahydro-1,8-naphthyridin-2-yl)piperazin-1-yl)methyl)-1-(oxetan-2-ylmethyl)-1H-benzo[d]imidazole-6-carboxylic acid], greater than 500 nM; in that of `N#Cc1ccc(CCn2ccc(C3CCN(Cc4nc5ccc(C(=O)O)cc5n4C[C@@H]4CCO4)CC3)n2)c(F)c1` [Compound 145, (S)-2-((4-(1-(4-cyano-2-fluorophenethyl)-1H-pyrazol-3-yl)piperidin-1-yl)methyl)-1-(oxetan-2-ylmethyl)-1H-benzo[d]imidazole-6-carboxylic acid], greater than 500 nM.
On to `O=C(O)c1ccc2nc(CN3CCN(c4nc(OCc5ccccc5)cc5ccccc45)CC3)n(C[C@@H]3CCO3)c2c1` [Compound 157, (S)-2-((4-(3-(benzyloxy)isoquinolin-1-yl)piperazin-1-yl)methyl)-1-(oxetan-2-ylmethyl)-1H-benzo[d]imidazole-6-carboxylic acid], for which the EC50 was greater than 500 nM.

The record behind these values is US20220089578A1, “COMPOUNDS AS GLP-1R AGONISTS” (Terns Pharmaceuticals, Inc., priority 2020, published 2022).
